# According to patent publication US5498710A, “Alkyl ether analogues of benzoporphyrin derivatives” (Health Research, Inc., priority 1994, dated 1996):
# “Also recorded” adds a separate entry of the source.
# What was measured:
# SMT-F tumor [1] = assay: In vivo antitumor (photodynamic) activity, SMT-F tumors in DBA/2 mice; set-up: species or system DBA/2 Ha-DD mouse
# Method: Tumor Response and Foot Response Experiments: For tumor response experiments (see Table 3), a 1mm^3 piece of SMT-F tumor from a donor DBA/2 Ha-DD mouse was implanted subcutaneously with a trocar into the axilla of a 5-7 week old female DBA/2 Ha-DD mouse. When the tumor had grown to about 4mm diameter, mice were injected intravenously (i.v.) with photosensitizers at various doses. At various time after injection, mice were restrained in Plexiglas® holders and each tumor was illuminated with 135 J/cm^2 light from a dye laser 171 (spectra physics). The light dose rate was 75 mW/cm^2 as measured with a PTR Optics […]. The percentage of short term control (non-palpable tumors) was recorded daily. For our study 6 mice/group were used.
# In vivo Biological Activity: The in vivo photosensitizing ability of all the sensitizers was compared with that of commercial BPD in DBA/2 mice bearing subcutaneously implanted SMT-F tumors, a method previously described by Dougherty et al. All photosensitizers, including commercial BPD (mixture of 21 and 22) were first dissolved in a minimum quantity of Tween 80 and then diluted with 0.9% saline, to a final concentration of 1% Tween 80.
# It can be seen from Table 3 that commercial BPD was quite effective at a dose of 5.0 mg/kg, 3 h post i.v. injection (4 out of six mice were tumor free at day 30). […] However, replacement of the vinyl with a 1-hexyloxyethyl group induced a remarkable difference in photosensitizing activity.
# hind foot = assay: Foot-response experiments (skin phototoxicity); format: in vivo, DBA/2 HaDD mice
# Method: Foot-response experiments were carried out on 5-7 week old female DBA/2 HaDD mice. Sensitizers were injected i.v. at the following doses: Photofrin® in normal saline, BPD (industrial preparation) in 1% Tween 80; n-hexyl ether derivative 40 in 1% Tween 80. After 1 or 5 days the mice were restrained without anesthesia in aluminum holders and one hind foot of each mouse was illuminated with light from a dye laser 171 (Spectra Physics). Illumination conditions (i.e., light dose, dose rate and wavelength) were as follows: Photofrin®, 5 mg/kg; BPD 5.0 mg/k (3.0 h), n-hexyl ether derivative 40 5.0 mg/kg (24 h) and 1.0 mg/kg (3 h). Light dose was measured with a Coherent 210 power meter and wavelength was measured with a PTR Optics monochromator. Sensitizer does for the foot response experiments corresponded to the lowest dose required to give maximum tumor control measured 7 days after treatment (see Table 3). Foot response was graded daily according to the scale in the legend to FIG. 13. Animals were euthanized immediately after peak foot scores were obtained.
# SMT-F tumor [2] = assay: In vivo antitumor (photodynamic) activity, SMT-F tumors in DBA/2 mice; set-up: species or system DBA/2 Ha-DD mouse; remark: listed apart in the source
# [3] = Electronic absorption, red absorption maximum; format: physicochemical; details: maximum red absorption peak, Table 3
# Method: M.p.s were measured on a Thomas/Bristoline microscopic hot stage apparatus and were uncorrected. Silica gel 60 (70-230 and 230-400 mesh, Merck) or neutral alumina (Merck; usually Brockmann Grade III, i. e., deactivated with 6% water) were used for column chromatography. Preparative thin layer chromatography was carried out on 20×20 cm glass plates coated with Merck G 254 silica gel (1 mm thick). Analytical thin layer chromatography (TLC) was performed using merck 60 F254 silica gel (precoated sheets, 0.2 mm thick). Reactions were monitored by TLC and spectrophotometry and were carried out under nitrogen and in the dark. ^1 HNMR spectra were obtained in deuteriochloroform solution at 300 MHz using a General Electric QE300 spectrometer; chemical shifts are expressed in ppm relative to chloroform (7.258 ppm). Elemental analyses were performed at the Midwest Microlab, Ltd., Indiana, USA. Unless stated otherwise, electronic absorption spectra were measured in dichloromethane solution using a Hewlett-Packard 8450A spectrophotometer. Mass spectra were obtained at the Mass Spectrometry Facility, University of California, San Francisco and at the Department of Biophysics, Roswell Park Cancer Institute, Buffalo.
smiles,measurement,setting,value
"CCCCCCOC(C)C1=C(C)c2cc3[nH]c(cc4nc(cc5[nH]c(cc1n2)c(C)c5CCC(=O)OC)C(CCC(=O)OC)=C4C)C1(C)C3=CC=C(C(=O)OC)C1C(=O)OC (mixture of isomers) [Compound 40, 8-(1-Hexyloxyethyl)benzoporphyrin Derivative]","Tumor response (nonpalpable tumor), 1-2 d","SMT-F tumor [1]; 1.0 mg/kg i.v., light 3 h after injection, day 1-2",6/6
same,"Tumor response (nonpalpable tumor), 7 d","SMT-F tumor [1]; 1.0 mg/kg i.v., light 3 h after injection, day 7",3/6
same,"Tumor response (nonpalpable tumor), 30 d","SMT-F tumor [1]; 1.0 mg/kg i.v., light 3 h after injection, day 30",3/6
same,antitumor / photosensitizing activity,"SMT-F tumor [1]; 1.0 mg/kg, light 3 h post i.v. injection where stated",active
same,in vivo activity versus vinyl or ring B isomer,"SMT-F tumor [1]; 1.0 mg/kg, trans isomers compared","more active than the ring ""B"" modified isomer 45"
same,in vivo photosensitizing efficacy / antitumor activity compared with BPD,"SMT-F tumor [1]; mice, compared with BPD (mixture of 21 and 22)",significantly more active than the industrially prepared benzoporphyrin derivative; also recorded: better photosensitizing efficacy than benzoporphyrin derivative monocarboxylic acid; also recorded: better anti-tumor activity than BPD-MA
same,skin phototoxicity compared with Photofrin and BPD,"hind foot; 1.0 mg/kg, 3 h post injection",reduced skin phototoxicity
same,skin phototoxicity compared with Photofrin and BPD,"hind foot; 5.0 mg/kg, 24 h post injection",reduced skin phototoxicity
same,skin phototoxicity,hind foot; dose not given,reduced residual skin phototoxicity compared with Photofrin; also recorded: reduced skin phototoxicity compared with BPD-MA and Photofrin
same,"Tumor response (nonpalpable tumor), 1-2 d","SMT-F tumor [2]; 5.0 mg/kg i.v., light 24 h after injection, day 1-2",6/6
same,"Tumor response (nonpalpable tumor), 7 d","SMT-F tumor [2]; 5.0 mg/kg i.v., light 24 h after injection, day 7",6/6
same,"Tumor response (nonpalpable tumor), 30 d","SMT-F tumor [2]; 5.0 mg/kg i.v., light 24 h after injection, day 30",5/6
same,tumorcidal / photosensitizing activity,"SMT-F tumor [2]; 5.0 mg/kg, light 24 h post i.v. injection",excellent tumorcidal activity
same,absorption maximum wavelength,[3],676 nm
